Key:
Test in all cases: Post-emergence test on weeds (greenhouse, spray at 2-3 leaf stage)
Format in all cases: in vivo
Parameters in all cases: key: Level 10: completely dead; Level 9: growth control rate greater than or equal to 90% and less than 100%; Level 8: growth control rate greater than or equal to 80% and less than 90%; Level 7: growth control rate greater than or equal to 70% and less than 80%; Level 6: growth control rate greater than or equal to 60% and less than 70%; Level 5: growth control rate greater than or equal to 50% and less than 60%; Level 4: growth control rate greater than or equal to 40% and less than 50%; Level 3: growth control rate greater than or equal to 30% and less than 40%; Level 2: growth control rate greater than or equal to 20% and less than 30%; Level 1: growth control rate less than 20%; Level 0: no effect
Conditions in all cases: 60 g a.i./ha, 3 weeks after application
Digitaria sanguinalis = system: Digitaria sanguinalis
From the text: (§1) The activity level criteria for plant damage (i.e., growth control rate) are as follows: • Level 10: completely dead; • Level 9: growth control rate greater than or equal to 90% and less than 100%; • Level 8: growth control rate greater than or equal to 80% and less than 90%; • Level 7: growth control rate greater than or equal to 70% and less than 80%; • Level 6: growth control rate greater than or equal to 60% and less than 70%; • Level 5: growth control rate greater than or equal to 50% and less than 60%; • Level 4: growth control rate greater than or equal to 40% and less than 50%; • Level 3: growth control rate greater than or equal to 30% and less than 40%; • Level 2: growth control rate greater than or equal to 20% and less than 30%; • Level 1: growth control rate less than 20%; • Level 0: no effect.
(§2) The above growth control rates are fresh weight control rates.
(§3) Monocotyledonous and dicotyledonous weed seeds (Descurainia sophia, Capsella bursa-pastoris, Abutilon theophrasti, Galium spurium, Stellaria media, Lithospermum arvense, Rorippa indica, Alopecurus aequalis, Alopecurus japonicus, Eleusine indica, Beckmannia syzigachne, Sclerochloa dura, Erigeron canadensis, Phleum paniculatum, Veronica polita, Bromus japonicus, Aegilops tauschii, Phalaris arundinacea, Amaranthus retrofexus, Chenopodium, Commelina communis, Cichorium endivia, Convolvulus arvensis, Cirsium arvense, Solanum nigrum, Acalypha australis, Digitaria sanguinalis, Echinochloa crus-galli, Setaria viridis, Setaa pumila, Lepochloa chinensis, Monochona vaginalis, Sagitta trifolia, Schoenoplectiella juncoides, Cypenus rotundus, Cyperus ira, Cyperus difformis, Fimbristylis, Portulaca oleracea, Xanthium sibiricum, Ipomoea nil, Eschenbachia japonica, etc.) and major crop seeds (wheat, maize, paddy rice, soybean, cotton, oilseed rape, millet, sorghum, potato, sesame, castor plant, etc.) were placed in plastic pots filled with soil and then covered with 0.5-2 cm of soil to allow them to grow in a favorable greenhouse environment. Two weeks after sowing, the test plants were treated at the stage of 2-3 leaves. The test compounds of the present invention were individually dissolved with acetone, then added with Tween® 80, with 1.5 L/ha of methyl oleate emulsifiable concentrate as a synergist, diluted into solutions of certain concentrations using certain amount of water, and sprayed to the plants using a spray tower. After drug application, the experimental results on weeds were collected after 3 weeks of cultivation in a greenhouse. The compounds were applied at 500, 250, […], 15, and 7.5 g a.i./ha in triplicate, and the results were averaged.

Echinochloa crus-galli = system: Echinochloa crus-galli
From the text: as §1, §2, §3

Amaranthus retroflexus = system: Amaranthus retroflexus
From the text: as §1, §2, §3

Setaria viridis = system: Setaria viridis
From the text: as §1, §2, §3

Abutilon theophrasti = system: Abutilon theophrasti
From the text: as §1, §2, §3

Veronica polita = system: Veronica polita
From the text: as §1, §2, §3

COC(=O)C1(C)ON=C(c2cc(-c3ncc(F)cc3F)c(F)cc2Cl)O1 (stereo not drawn) [Compound 7]
10: activity level (fresh weight growth control rate), Digitaria sanguinalis (Digitaria sanguinalis) | activity level (fresh weight growth control rate), Echinochloa crus-galli (Echinochloa crus-galli) | activity level (fresh weight growth control rate), Amaranthus retroflexus (Amaranthus retroflexus) | activity level (fresh weight growth control rate), Setaria viridis (Setaria viridis) | activity level (fresh weight growth control rate), Abutilon theophrasti (Abutilon theophrasti) | activity level (fresh weight growth control rate), Veronica polita (Veronica polita)

COC(=O)C1(C)ON=C(c2cc(-c3ncc(Cl)cc3Cl)c(F)cc2Cl)O1 (stereo not drawn) [Compound 11]
10: activity level (fresh weight growth control rate), Digitaria sanguinalis (Digitaria sanguinalis) | activity level (fresh weight growth control rate), Echinochloa crus-galli (Echinochloa crus-galli) | activity level (fresh weight growth control rate), Amaranthus retroflexus (Amaranthus retroflexus) | activity level (fresh weight growth control rate), Setaria viridis (Setaria viridis) | activity level (fresh weight growth control rate), Abutilon theophrasti (Abutilon theophrasti) | activity level (fresh weight growth control rate), Veronica polita (Veronica polita)

CCOC(=O)C1(C2CC2)ON=C(c2cc(-c3ncc(C(F)(F)F)cc3Cl)c(F)cc2Cl)O1 (stereo not drawn) [Compound 79]
10: activity level (fresh weight growth control rate), Digitaria sanguinalis (Digitaria sanguinalis) | activity level (fresh weight growth control rate), Echinochloa crus-galli (Echinochloa crus-galli) | activity level (fresh weight growth control rate), Amaranthus retroflexus (Amaranthus retroflexus) | activity level (fresh weight growth control rate), Setaria viridis (Setaria viridis) | activity level (fresh weight growth control rate), Abutilon theophrasti (Abutilon theophrasti) | activity level (fresh weight growth control rate), Veronica polita (Veronica polita)

COC(=O)C1(C)ON=C(c2cc(-c3ncc(C(F)(F)F)cc3F)c(F)cc2Cl)O1 (stereo not drawn) [Compound 6]
10: activity level (fresh weight growth control rate), Digitaria sanguinalis (Digitaria sanguinalis) | activity level (fresh weight growth control rate), Echinochloa crus-galli (Echinochloa crus-galli) | activity level (fresh weight growth control rate), Amaranthus retroflexus (Amaranthus retroflexus) | activity level (fresh weight growth control rate), Setaria viridis (Setaria viridis) | activity level (fresh weight growth control rate), Abutilon theophrasti (Abutilon theophrasti) | activity level (fresh weight growth control rate), Veronica polita (Veronica polita)

CCOC(=O)C1(C)ON=C(c2cc(-c3ncc(C(F)(F)F)cc3F)c(F)cc2Cl)O1 (stereo not drawn) [Compound 34]
10: activity level (fresh weight growth control rate), Digitaria sanguinalis (Digitaria sanguinalis) | activity level (fresh weight growth control rate), Echinochloa crus-galli (Echinochloa crus-galli) | activity level (fresh weight growth control rate), Amaranthus retroflexus (Amaranthus retroflexus) | activity level (fresh weight growth control rate), Setaria viridis (Setaria viridis) | activity level (fresh weight growth control rate), Abutilon theophrasti (Abutilon theophrasti) | activity level (fresh weight growth control rate), Veronica polita (Veronica polita)

COCCOC(=O)C1ON=C(c2cc(-c3ncc(C(F)(F)F)cc3Cl)c(F)cc2Cl)O1 (stereo not drawn) [Compound 112]
10: activity level (fresh weight growth control rate), Digitaria sanguinalis (Digitaria sanguinalis) | activity level (fresh weight growth control rate), Echinochloa crus-galli (Echinochloa crus-galli) | activity level (fresh weight growth control rate), Amaranthus retroflexus (Amaranthus retroflexus) | activity level (fresh weight growth control rate), Setaria viridis (Setaria viridis) | activity level (fresh weight growth control rate), Abutilon theophrasti (Abutilon theophrasti) | activity level (fresh weight growth control rate), Veronica polita (Veronica polita)

COCCCOC(=O)C1ON=C(c2cc(-c3ncc(C(F)(F)F)cc3Cl)c(F)cc2Cl)O1 (stereo not drawn) [Compound 115]
10: activity level (fresh weight growth control rate), Digitaria sanguinalis (Digitaria sanguinalis) | activity level (fresh weight growth control rate), Echinochloa crus-galli (Echinochloa crus-galli) | activity level (fresh weight growth control rate), Amaranthus retroflexus (Amaranthus retroflexus) | activity level (fresh weight growth control rate), Setaria viridis (Setaria viridis) | activity level (fresh weight growth control rate), Abutilon theophrasti (Abutilon theophrasti) | activity level (fresh weight growth control rate), Veronica polita (Veronica polita)

COCOC(=O)C1(C)ON=C(c2cc(-c3ncc(C(F)(F)F)cc3Cl)c(F)cc2Cl)O1 (stereo not drawn) [Compound 108]
10: activity level (fresh weight growth control rate), Digitaria sanguinalis (Digitaria sanguinalis) | activity level (fresh weight growth control rate), Echinochloa crus-galli (Echinochloa crus-galli) | activity level (fresh weight growth control rate), Amaranthus retroflexus (Amaranthus retroflexus) | activity level (fresh weight growth control rate), Setaria viridis (Setaria viridis) | activity level (fresh weight growth control rate), Abutilon theophrasti (Abutilon theophrasti) | activity level (fresh weight growth control rate), Veronica polita (Veronica polita)
